Tested on: HCV
Experiment: HCV viral kinetic population model (nonlinear mixed effects) fitted to long-term viral load profiles of 2100 CHC patients
Assay type: in vivo, human (patients)
From the text: In an embodiment, a population model may account for the ribavirin effect, the natural turnover and proliferation of hepatocytes, and the viral eradication.
In this example, liver physiological/patho-physiology characteristics are incorporated into model 400, such as hepatocyte cell maturation (source s), death rate (death d), maximal liver size (Tmax). Model 400 can be parameterization in terms of a reproductive ratio (RR0) rather than cell infectivity (infection β). A “cure” boundary condition can be provided when a number of infected cells is predicted to be <=1.
HCV viral kinetic model 400 is extended with a density dependent proliferation of hepatocytes [r].
Infectious HCV virions (VI) infect target cells (uninfected hepatocytes) [T] creating productively infected cells (I) at a rate β·V1·T. Uninfected hepatocytes are produced at rate s and die at rate d. Infected hepatocytes die at rate δ. Infectious (VI) and non-infectious (VNI) virions are produced at rate p and cleared at rate c. The measured viral load (V) can be expressed in IU/mL, representing the sum of infectious and non-infectious virions V=VI+VN.
Continuing the example, DoseRBV is the daily dose of ribavirin per kg body weight and ED50RRV is the estimated daily dose in mg/kg rendering 40% of the virions non-infectious. […]

**Q.** Which “ED50RBV (estimated daily dose rendering virions non-infectious)” value (population estimate, daily dose per kg body weight) does the source give for `NC(=O)c1ncn([C@@H]2O[C@H](CO)[C@@H](O)[C@H]2O)n1` [ribavirin] here?
**A.** 14.4 mg˜kg^−1·day^−1

**Q.** And the “Fraction of the virions rendered non-infectious” value (standard ribavirin treatment of 1000/1200 mg per day)?
**A.** 40-60%

Reference: patent publication US20100280986A1, “SYSTEMS AND METHODS FOR TAILORING ACUTE AND CHRONIC VIRAL INFECTION […] INCREASE THE P[…] "CURE" FOR A GIVEN SUBJECT” (Roche Palo Alto, priority 2009, published 2010)
